Data taken from article PMC7260179, “Structural insight into the electron transfer pathway of a self-sufficient P450 monooxygenase” (Nature Communications, 2020).

Tests used:
[1] = molecular target: T1, CYP116B46 (Tepidiphilus thermophilus, UniProt A0A0K6ITW2); experiment: X-ray crystal structure; format: binding; conditions: crystals at pH 7.0
T1 construct: gene Ga0061068_103196; full-length, synthetic gene in pET46 Ek/LIC (Ni-NTA purified), expressed in E. coli BL21(DE3); residues 27-779 modelled in crystal

[2] = molecular target: T1, CYP116B46; experiment: hydroxylation assay, GC-FID of silylated products; format: biochemical; conditions: 0.4 mM substrate, 10 uM enzyme, 1 mM NADP+ with glucose dehydrogenase/glucose recycling, pH 8.0, 30 C, 5 h

T1 sequence (A0A0K6ITW2 entry or part of it): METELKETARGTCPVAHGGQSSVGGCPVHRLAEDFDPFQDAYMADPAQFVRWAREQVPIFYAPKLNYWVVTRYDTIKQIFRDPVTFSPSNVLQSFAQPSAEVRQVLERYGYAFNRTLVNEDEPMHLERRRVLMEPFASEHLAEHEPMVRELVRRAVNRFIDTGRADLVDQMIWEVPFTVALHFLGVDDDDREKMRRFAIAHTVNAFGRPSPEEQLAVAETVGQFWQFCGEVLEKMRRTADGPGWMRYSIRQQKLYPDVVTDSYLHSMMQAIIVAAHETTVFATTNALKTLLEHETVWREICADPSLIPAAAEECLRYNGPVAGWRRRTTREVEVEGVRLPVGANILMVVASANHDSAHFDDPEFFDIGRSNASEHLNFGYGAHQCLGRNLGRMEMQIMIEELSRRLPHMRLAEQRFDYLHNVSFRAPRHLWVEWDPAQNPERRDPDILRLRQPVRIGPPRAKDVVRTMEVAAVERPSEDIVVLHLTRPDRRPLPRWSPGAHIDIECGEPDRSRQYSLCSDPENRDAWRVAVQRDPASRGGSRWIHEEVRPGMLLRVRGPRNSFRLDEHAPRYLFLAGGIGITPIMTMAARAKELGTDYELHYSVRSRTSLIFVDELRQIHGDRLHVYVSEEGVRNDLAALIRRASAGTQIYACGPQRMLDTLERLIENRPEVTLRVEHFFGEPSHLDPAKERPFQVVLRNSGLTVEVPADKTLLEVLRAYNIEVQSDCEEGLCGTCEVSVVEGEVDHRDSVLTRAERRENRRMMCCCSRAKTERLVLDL

Cc1cc2nc3c(=O)[nH]c(=O)nc-3n(C[C@H](O)[C@H](O)[C@H](O)COP(=O)(O)O)c2cc1C [FMN]
X-ray crystal structure, 2.13 A ([1]; reductase domain, co-purified with the recombinant protein): The FMN bound in the reductase domain was co-purified with the recombinant protein

[S]1[Fe][S][Fe]1 [[2Fe-2S] cluster]
X-ray crystal structure, 2.13 A ([1]; ferredoxin domain): binding sites for each of the prosthetic groups, heme, FMN and binuclear Fe-S cluster

CCCCCCCCCC(=O)O [decanoic acid]
hydroxylation assay, GC-FID of silylated products [2]: The enzyme activity of CYP116B46 was estimated by decanoic acid hydroxylation assay
